Laboratory results as given in ChEMBL document CHEMBL1201862, “PubChem BioAssay data set” (2004).
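The compound was tested at five concentrations on cells cultured in 96-well plates, with a 48-hour exposure period. Here, GI50 denotes the concentration required for 50% inhibition of growth.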 Active and inactive are the calls of the source. Cut-off read from the data, not from the text of the source: active = GI50 up to about 1.1 µM and inactive = higher.

Experiments:
Test in all cases: NCI anticancer screen, dose series, 48 h
UO-31 = system: UO-31
OVCAR-5 = system: OVCAR-5
HOP-62 = system: HOP-62
SK-MEL-2 = system: SK-MEL-2
ACHN = system: ACHN
NCI-H460 = system: NCI-H460
NCI-H23 = system: NCI-H23
MOLT-4 = system: MOLT-4
HT-29 = system: HT-29
KM12 = system: KM12
SK-OV-3 = system: SK-OV-3
HCT-116 = system: HCT-116
SNB-75 = system: SNB-75
SK-MEL-28 = system: SK-MEL-28
SW-620 = system: SW-620
CCRF-CEM = system: CCRF-CEM
LOX IMVI = system: LOX IMVI
MDA-N = system: MDA-N
786-0 = system: 786-0
UACC-62 = system: UACC-62
PC-3 = system: PC-3
COLO 205 = system: COLO 205
A549 = system: A549
SR = system: SR
RPMI-8226 = system: RPMI-8226
HL-60 = system: HL-60
TK-10 = system: TK-10
SF-268 = system: SF-268
SNB-19 = system: SNB-19
SN12C = system: SN12C
OVCAR-4 = system: OVCAR-4
UACC-257 = system: UACC-257
DU-145 = system: DU-145
IGROV-1 = system: IGROV-1
Hs-578T = system: Hs-578T
SF-539 = system: SF-539
HOP-92 = system: HOP-92
HCT-15 = system: HCT-15
BT-549 = system: BT-549
U-251 = system: U-251
OVCAR-8 = system: OVCAR-8
NCI/ADR-RES = system: NCI/ADR-RES
K562 = system: K562
RXF 393 = system: RXF 393
M14 = system: M14
NCI-H522 = system: NCI-H522
T47D = system: T47D
MCF7 = system: MCF7
Malme-3M = system: Malme-3M
SK-MEL-5 = system: SK-MEL-5
MDA-MB-231 = system: MDA-MB-231
A498 = system: A498
MDA-MB-435 = system: MDA-MB-435
NCI-H226 = system: NCI-H226
SF-295 = system: SF-295
OVCAR-3 = system: OVCAR-3
CAKI-1 = system: CAKI-1
EKVX = system: EKVX

Cc1ccc(S(=O)(=O)NC(=O)NS(=O)(=O)O)cc1
GI50 (UO-31): > 100 µM (inactive)
GI50 (OVCAR-5): > 100 µM (inactive)
GI50 (HOP-62): > 100 µM (inactive)
GI50 (SK-MEL-2): > 100 µM (inactive)
GI50 (ACHN): > 100 µM (inactive)
GI50 (NCI-H460): > 100 µM (inactive)
GI50 (NCI-H23): > 100 µM (inactive)
GI50 (MOLT-4): > 100 µM (inactive)
GI50 (HT-29): > 100 µM (inactive)
GI50 (KM12): > 100 µM (inactive)
GI50 (SK-OV-3): > 100 µM (inactive)
GI50 (HCT-116): > 100 µM (inactive)
GI50 (SNB-75): > 100 µM (inactive)
GI50 (SK-MEL-28): > 100 µM (inactive)
GI50 (SW-620): > 100 µM (inactive)
GI50 (CCRF-CEM): > 100 µM (inactive)
GI50 (LOX IMVI): > 100 µM (inactive)
GI50 (MDA-N): > 100 µM (inactive)
GI50 (786-0): > 100 µM (inactive)
GI50 (UACC-62): > 100 µM (inactive)
GI50 (PC-3): > 100 µM (inactive)
GI50 (COLO 205): > 100 µM (inactive)
GI50 (A549): > 100 µM (inactive)
GI50 (SR): < 0.01 µM (active)
GI50 (RPMI-8226): 0.0771 µM (active)
GI50 (HL-60): > 100 µM (inactive)
GI50 (TK-10): > 100 µM (inactive)
GI50 (SF-268): > 100 µM (inactive)
GI50 (SNB-19): > 100 µM (inactive)
GI50 (SN12C): > 100 µM (inactive)
GI50 (OVCAR-4): > 100 µM (inactive)
GI50 (UACC-257): > 100 µM (inactive)
GI50 (DU-145): > 100 µM (inactive)
GI50 (IGROV-1): > 100 µM (inactive)
GI50 (Hs-578T): > 100 µM (inactive)
GI50 (SF-539): > 100 µM (inactive)
GI50 (HOP-92): > 100 µM (inactive)
GI50 (HCT-15): > 100 µM
GI50 (BT-549): > 100 µM (inactive)
GI50 (U-251): > 100 µM (inactive)
GI50 (OVCAR-8): > 100 µM (inactive)
GI50 (NCI/ADR-RES): > 100 µM (inactive)
GI50 (K562): > 100 µM (inactive)
GI50 (RXF 393): > 100 µM (inactive)
GI50 (M14): > 100 µM (inactive)
GI50 (NCI-H522): > 100 µM (inactive)
GI50 (T47D): > 100 µM (inactive)
GI50 (MCF7): > 100 µM (inactive)
GI50 (Malme-3M): > 100 µM (inactive)
GI50 (SK-MEL-5): > 100 µM (inactive)
GI50 (MDA-MB-231): > 100 µM (inactive)

O=C1CSSCC(=O)Nc2ccccc2N1
GI50 (UO-31): > 100 µM (inactive)
GI50 (A498): > 100 µM (inactive)
GI50 (OVCAR-5): > 100 µM (inactive)
GI50 (HOP-62): > 100 µM (inactive)
GI50 (SK-MEL-2): > 100 µM (inactive)
GI50 (ACHN): > 100 µM (inactive)
GI50 (NCI-H460): > 100 µM (inactive)
GI50 (NCI-H23): > 100 µM (inactive)
GI50 (MOLT-4): 55.6 µM (inactive)
GI50 (HT-29): > 100 µM (inactive)
GI50 (KM12): > 100 µM (inactive)
GI50 (MDA-MB-435): > 100 µM (inactive)
GI50 (NCI-H226): > 100 µM (inactive)
GI50 (SF-295): > 100 µM (inactive)
GI50 (SK-OV-3): > 100 µM (inactive)
GI50 (OVCAR-3): > 100 µM (inactive)
GI50 (HCT-116): > 100 µM (inactive)
GI50 (SK-MEL-28): > 100 µM (inactive)
GI50 (SW-620): > 100 µM (inactive)
GI50 (CCRF-CEM): > 100 µM (inactive)
GI50 (LOX IMVI): > 100 µM (inactive)
GI50 (MDA-N): > 100 µM (inactive)
GI50 (786-0): > 100 µM (inactive)
GI50 (UACC-62): > 100 µM (inactive)
GI50 (PC-3): > 100 µM (inactive)
GI50 (COLO 205): > 100 µM (inactive)
GI50 (CAKI-1): > 100 µM (inactive)
GI50 (A549): > 100 µM (inactive)
GI50 (SR): > 100 µM (inactive)
GI50 (RPMI-8226): > 100 µM (inactive)
GI50 (HL-60): > 100 µM (inactive)
GI50 (TK-10): > 100 µM (inactive)
GI50 (SF-268): > 100 µM (inactive)
GI50 (SNB-19): > 100 µM (inactive)
GI50 (SN12C): > 100 µM (inactive)
GI50 (OVCAR-4): > 100 µM (inactive)
GI50 (UACC-257): > 100 µM (inactive)
GI50 (EKVX): > 100 µM (inactive)
GI50 (DU-145): > 100 µM (inactive)
GI50 (IGROV-1): > 100 µM (inactive)
GI50 (Hs-578T): > 100 µM (inactive)
GI50 (SF-539): > 100 µM (inactive)
GI50 (HOP-92): > 100 µM (inactive)
GI50 (HCT-15): > 100 µM
GI50 (BT-549): > 100 µM (inactive)
GI50 (U-251): > 100 µM (inactive)
GI50 (OVCAR-8): > 100 µM (inactive)
GI50 (NCI/ADR-RES): > 100 µM (inactive)
GI50 (K562): > 100 µM (inactive)
GI50 (RXF 393): > 100 µM (inactive)
GI50 (M14): > 100 µM (inactive)
GI50 (NCI-H522): > 100 µM (inactive)
GI50 (T47D): > 100 µM (inactive)
GI50 (Malme-3M): > 100 µM (inactive)
GI50 (SK-MEL-5): > 100 µM (inactive)
GI50 (MDA-MB-231): > 100 µM (inactive)
